Reference: ChEMBL document CHEMBL1151685, “Structure-activity relationship of antibacterial chalcones” (2008)
In brackets after ≈: the same amount, converted by molar mass.

Tests used:
Type in all cases: functional
Bacillus cereus = test: Antibacterial activity against Bacillus cereus ATCC 11778 after 24 hrs by microdilution broth method; settings: ATCC 11778, 24 h
Escherichia coli = test: Antibacterial activity against Escherichia coli ATCC 25922 after 24 hrs by microdilution broth method; settings: ATCC 25922, 24 h
Pseudomonas aeruginosa = test: Antibacterial activity against Pseudomonas aeruginosa ATCC 27853 after 24 hrs by microdilution broth method; settings: ATCC 27853, 24 h
Staphylococcus aureus = test: Antibacterial activity against Staphylococcus aureus ATCC 25923 after 24 hrs by microdilution broth method; settings: ATCC 25923, 24 h

SMILES | MIC (Bacillus cereus) [µg/mL] | MIC (Escherichia coli) [µg/mL] | MIC (Pseudomonas aeruginosa) [µg/mL] | MIC (Staphylococcus aureus) [µg/mL] | MBC (Bacillus cereus) [µg/mL] | MBC (Escherichia coli) [µg/mL] | MBC (Pseudomonas aeruginosa) [µg/mL] | MBC (Staphylococcus aureus) [µg/mL]
COc1ccc(C(=O)/C=C/c2ccc(O)cc2)cc1 | 2000 (≈ 7.87 mM) | 1000 (≈ 3.93 mM) | 1000 (≈ 3.93 mM) | 2000 (≈ 7.87 mM) | 2000 (≈ 7.87 mM) | 2000 (≈ 7.87 mM) | 2000 (≈ 7.87 mM) | 2000 (≈ 7.87 mM)
O=C(CCc1ccccc1O)c1ccccc1 | 500 (≈ 2.21 mM) | 2000 (≈ 8.84 mM) | 1000 (≈ 4.42 mM) | 500 (≈ 2.21 mM) | 500 (≈ 2.21 mM) | 2000 (≈ 8.84 mM) | 2000 (≈ 8.84 mM) | 500 (≈ 2.21 mM)
COc1ccc(C(=O)/C=C/c2cccc(O)c2)c(O)c1CC=C(C)C | 1000 (≈ 2.96 mM) | 2000 (≈ 5.91 mM) | 2000 (≈ 5.91 mM) | 2000 (≈ 5.91 mM) | 1000 (≈ 2.96 mM) | 2000 (≈ 5.91 mM) | 2000 (≈ 5.91 mM) | 2000 (≈ 5.91 mM)
COc1cc(OC)c(OC)cc1/C=C/C(=O)c1ccc(OC)c(OC)c1 | 2000 (≈ 5.58 mM) | 1000 (≈ 2.79 mM) | 2000 (≈ 5.58 mM) | 2000 (≈ 5.58 mM) | > 2000 | > 2000 | > 2000 | > 2000
COc1ccc(/C=C/C(=O)c2cc(OC)c(OC)cc2O)cc1 | 1000 (≈ 3.18 mM) | 2000 (≈ 6.36 mM) | 1000 (≈ 3.18 mM) | 2000 (≈ 6.36 mM) | > 2000 | > 2000 | > 2000 | > 2000
COc1cc(OC)c(C(=O)/C=C/c2ccc3c(c2)OCO3)c(OC)c1OC | 2000 (≈ 5.37 mM) | 2000 (≈ 5.37 mM) | 2000 (≈ 5.37 mM) | > 2000 | > 2000 | 2000 (≈ 5.37 mM) | 2000 (≈ 5.37 mM) | > 2000
COc1ccccc1/C=C/C(=O)c1cc(OC)c(OC)cc1OC | 250 (≈ 0.761 mM) | 2000 (≈ 6.09 mM) | 2000 (≈ 6.09 mM) | 1000 (≈ 3.05 mM) | 250 (≈ 0.761 mM) | 2000 (≈ 6.09 mM) | 2000 (≈ 6.09 mM) | 1000 (≈ 3.05 mM)
COc1ccc(C(=O)/C=C/c2ccccc2)cc1OC [3',4'-DIMETHOXYCHALCONE] | 1000 (≈ 3.73 mM) | 2000 (≈ 7.45 mM) | 1000 (≈ 3.73 mM) | 1000 (≈ 3.73 mM) | 1000 (≈ 3.73 mM) | 1000 (≈ 3.73 mM) | 2000 (≈ 7.45 mM) | 2000 (≈ 7.45 mM)
COc1ccc(/C=C/C(=O)c2ccc(OC)cc2)cc1 [4,4'-DIMETHOXYCHALCONE] | > 2000 | > 2000 | 2000 (≈ 7.45 mM) | > 2000 | > 2000 | > 2000 | 2000 (≈ 7.45 mM) | > 2000
COc1ccc(C(=O)/C=C/c2ccccc2)c(O)c1CC=C(C)C [DERRICIN] | 2000 (≈ 6.2 mM) | 2000 (≈ 6.2 mM) | 2000 (≈ 6.2 mM) | 2000 (≈ 6.2 mM) | 2000 (≈ 6.2 mM) | 2000 (≈ 6.2 mM) | 2000 (≈ 6.2 mM) | > 2000
CC(C)=CCc1c(O)ccc(C(=O)/C=C/c2ccc(O)cc2)c1O [ISOBAVACHALCONE] | 31.2 (≈ 0.0962 mM) | 1000 (≈ 3.08 mM) | 1000 (≈ 3.08 mM) | 31.2 (≈ 0.0962 mM) | 31.2 (≈ 0.0962 mM) | 1000 (≈ 3.08 mM) | 2000 (≈ 6.17 mM) | 31.2 (≈ 0.0962 mM)
O=C(/C=C/c1ccc(O)cc1)c1ccc(O)cc1O [ISOLIQUIRITIGENIN] | 62.5 (≈ 0.244 mM) | 2000 (≈ 7.8 mM) | 2000 (≈ 7.8 mM) | 62.5 (≈ 0.244 mM) | 62.5 (≈ 0.244 mM) | 2000 (≈ 7.8 mM) | 2000 (≈ 7.8 mM) | 62.5 (≈ 0.244 mM)
CC1(C)C=Cc2c(ccc(C(=O)/C=C/c3ccccc3)c2O)O1 [LONCHOCARPIN] | 2000 (≈ 6.53 mM) | 1000 (≈ 3.26 mM) | 2000 (≈ 6.53 mM) | 2000 (≈ 6.53 mM) | 2000 (≈ 6.53 mM) | 1000 (≈ 3.26 mM) | 2000 (≈ 6.53 mM) | 2000 (≈ 6.53 mM)
O=C(CCc1ccc(O)cc1)c1c(O)cc(O)cc1O [PHLORETIN] | 250 (≈ 0.912 mM) | > 2000 | 2000 (≈ 7.29 mM) | 250 (≈ 0.912 mM) | 250 (≈ 0.912 mM) | 1000 (≈ 3.65 mM) | 2000 (≈ 7.29 mM) | 250 (≈ 0.912 mM)
CN(C)[C@@H]1C(O)=C(C(N)=O)C(=O)[C@@]2(O)C(O)=C3C(=O)c4c(O)cccc4[C@@](C)(O)[C@H]3C[C@@H]12 [TETRACYCLINE] | 0.25 (≈ 0.000563 mM) | 2 (≈ 0.0045 mM) | 32 (≈ 0.072 mM) | 1 (≈ 0.00225 mM) |  |  |  | 

Continued, in another order:

MIC (Bacillus cereus) [µg/mL] | MIC (Escherichia coli) [µg/mL] | MIC (Pseudomonas aeruginosa) [µg/mL] | MIC (Staphylococcus aureus) [µg/mL] | SMILES | MBC (Bacillus cereus) [µg/mL] | MBC (Escherichia coli) [µg/mL] | MBC (Pseudomonas aeruginosa) [µg/mL] | MBC (Staphylococcus aureus) [µg/mL]
2000 (≈ 5.91 mM) | 2000 (≈ 5.91 mM) | 2000 (≈ 5.91 mM) | 2000 (≈ 5.91 mM) | COc1ccc(C(=O)/C=C/c2ccccc2O)c(O)c1CC=C(C)C | 2000 (≈ 5.91 mM) | 2000 (≈ 5.91 mM) | 2000 (≈ 5.91 mM) | > 2000
2000 (≈ 5.81 mM) | 2000 (≈ 5.81 mM) | 2000 (≈ 5.81 mM) | 2000 (≈ 5.81 mM) | COc1cc(OC)c(C(=O)CCc2ccc3c(c2)OCO3)cc1OC | 2000 (≈ 5.81 mM) | 2000 (≈ 5.81 mM) | 2000 (≈ 5.81 mM) | 2000 (≈ 5.81 mM)
2000 (≈ 5.67 mM) | 2000 (≈ 5.67 mM) | 2000 (≈ 5.67 mM) | 2000 (≈ 5.67 mM) | COc1ccc(/C=C/C(=O)c2ccc(OC)c(CC=C(C)C)c2O)cc1 | 2000 (≈ 5.67 mM) | > 2000 | 2000 (≈ 5.67 mM) | 2000 (≈ 5.67 mM)
15.6 (≈ 0.0397 mM) | 1000 (≈ 2.55 mM) | 1000 (≈ 2.55 mM) | 31.2 (≈ 0.0795 mM) | CC(C)=CCC/C(C)=C\Cc1c(O)ccc(C(=O)/C=C/c2ccc(O)cc2)c1O | 15.6 (≈ 0.0397 mM) | 2000 (≈ 5.1 mM) | 2000 (≈ 5.1 mM) | 31.2 (≈ 0.0795 mM)
3.9 (≈ 0.0115 mM) | 2000 (≈ 5.91 mM) | 2000 (≈ 5.91 mM) | 7.8 (≈ 0.023 mM) | COc1ccc(C(=O)/C=C/c2ccc(O)cc2)c(O)c1CC=C(C)C | 3.9 (≈ 0.0115 mM) | 2000 (≈ 5.91 mM) | 2000 (≈ 5.91 mM) | 7.8 (≈ 0.023 mM)
> 2000 | > 2000 | 2000 (≈ 5.15 mM) | > 2000 | COc1cc(OC)c(OC)cc1/C=C/C(=O)c1cc(OC)c(OC)cc1OC | > 2000 | > 2000 | 2000 (≈ 5.15 mM) | > 2000
2000 (≈ 5.18 mM) | 1000 (≈ 2.59 mM) | 1000 (≈ 2.59 mM) | 2000 (≈ 5.18 mM) | COc1ccc(/C=C/C(=O)c2c(OC)cc(OC)c(OC)c2OC(C)=O)cc1 | > 2000 | > 2000 | 2000 (≈ 5.18 mM) | > 2000
1000 (≈ 3.08 mM) | 2000 (≈ 6.17 mM) | 2000 (≈ 6.17 mM) | 2000 (≈ 6.17 mM) | CC(C)=CCOc1ccc(C(=O)/C=C/c2ccc(O)cc2)c(O)c1 | 1000 (≈ 3.08 mM) | > 2000 | 2000 (≈ 6.17 mM) | 2000 (≈ 6.17 mM)
2000 (≈ 5.15 mM) | 2000 (≈ 5.15 mM) | 2000 (≈ 5.15 mM) | 2000 (≈ 5.15 mM) | COc1ccc(C(=O)/C=C/c2c(OC)cc(OC)c(OC)c2OC)cc1OC | 2000 (≈ 5.15 mM) | > 2000 | > 2000 | > 2000
15.6 (≈ 0.0339 mM) | 1000 (≈ 2.17 mM) | 1000 (≈ 2.17 mM) | 31.2 (≈ 0.0677 mM) | CC(C)=CCC/C(C)=C\Cc1c(O)ccc(C(=O)/C=C/c2ccc(O)c(CC=C(C)C)c2)c1O | 15.6 (≈ 0.0339 mM) | 2000 (≈ 4.34 mM) | 2000 (≈ 4.34 mM) | 31.2 (≈ 0.0677 mM)
2000 (≈ 5.43 mM) | 2000 (≈ 5.43 mM) | 2000 (≈ 5.43 mM) | 2000 (≈ 5.43 mM) | COc1cc(C(=O)CCc2ccccc2)c(OC)c(CC=C(C)C)c1OC | 2000 (≈ 5.43 mM) | 2000 (≈ 5.43 mM) | 2000 (≈ 5.43 mM) | > 2000
1000 (≈ 3.52 mM) | 1000 (≈ 3.52 mM) | 1000 (≈ 3.52 mM) | 1000 (≈ 3.52 mM) | COc1ccc(C(=O)/C=C/c2ccccc2O)cc1OC | 1000 (≈ 3.52 mM) | 2000 (≈ 7.03 mM) | > 2000 | 2000 (≈ 7.03 mM)
1000 (≈ 3.1 mM) | 2000 (≈ 6.2 mM) | 2000 (≈ 6.2 mM) | 1000 (≈ 3.1 mM) | CC1(C)C=Cc2cc(C(=O)/C=C/c3ccc(O)cc3)c(O)cc2O1 [4-HYDROXYISOLONCHOCARPIN] | > 2000 | > 2000 | > 2000 | > 2000
2000 (≈ 6.49 mM) | 2000 (≈ 6.49 mM) | 2000 (≈ 6.49 mM) | 2000 (≈ 6.49 mM) | CC(C)=CCOc1ccc(C(=O)/C=C/c2ccccc2)c(O)c1 [CORDOIN] | 2000 (≈ 6.49 mM) | > 2000 | 2000 (≈ 6.49 mM) | > 2000
2000 (≈ 6.49 mM) | 2000 (≈ 6.49 mM) | 2000 (≈ 6.49 mM) | 2000 (≈ 6.49 mM) | CC(C)=CCc1c(O)ccc(C(=O)/C=C/c2ccccc2)c1O [ISOCORDOIN] | 2000 (≈ 6.49 mM) | 2000 (≈ 6.49 mM) | 1000 (≈ 3.24 mM) | 2000 (≈ 6.49 mM)
1000 (≈ 3.26 mM) | 2000 (≈ 6.53 mM) | 2000 (≈ 6.53 mM) | 2000 (≈ 6.53 mM) | CC1(C)C=Cc2cc(C(=O)/C=C/c3ccccc3)c(O)cc2O1 [ISOLONCHOCARPIN] | > 2000 | > 2000 | > 2000 | > 2000
